Assay: xn = mol fraction of the nth substance listed

O=CO + NC=O
viscosity [mPa·s]
Settings	298.15 K	303.15 K	308.15 K	313.15 K
101 kPa, x2 = 0.1	1.946	–	–	1.429
101 kPa, x2 = 0.2005	2.316	–	–	1.685
101 kPa, x2 = 0.3015	2.557	–	–	1.849
101 kPa, x2 = 0.4	2.85	–	–	2.065
101 kPa, x2 = 0.5002	3.057	–	–	2.23
101 kPa, x2 = 0.6001	3.196	–	–	2.31
101 kPa, x2 = 0.7	3.286	–	–	2.342
101 kPa, x2 = 0.8001	3.314	–	–	2.355
101 kPa, x2 = 0.9	3.341	–	–	2.368
101.33 kPa, x2 = 0.0748	1.77	1.58	1.45	1.33
101.33 kPa, x2 = 0.1535	2.01	1.79	1.65	1.52
101.33 kPa, x2 = 0.2286	2.25	2	1.83	1.68
101.33 kPa, x2 = 0.3078	2.5	2.21	2.02	1.84
101.33 kPa, x2 = 0.3891	2.81	2.47	2.26	2.07
101.33 kPa, x2 = 0.4554	2.86	2.52	2.3	2.1
101.33 kPa, x2 = 0.5248	2.98	2.62	2.39	2.18
101.33 kPa, x2 = 0.6239	3.06	2.69	2.46	2.24
101.33 kPa, x2 = 0.6923	3.09	2.72	2.48	2.25
101.33 kPa, x2 = 0.7982	3.13	2.74	2.49	2.26
101.33 kPa, x2 = 0.8449	3.12	2.73	2.48	2.26
101.33 kPa, x2 = 0.9202	3.11	2.72	2.47	2.25

CC(Cl)(Cl)Cl + CCCCCCC
303.15 K, 101 kPa
Settings	viscosity [mPa·s]
x1 = 0.138	0.3932
x1 = 0.2468	0.4161
x1 = 0.355	0.442
x1 = 0.4494	0.4689
x1 = 0.5571	0.5061
x1 = 0.6233	0.5327
x1 = 0.7095	0.5716
x1 = 0.7857	0.6088
x1 = 0.8262	0.63
x1 = 0.9288	0.6849

O=CO + CC(=O)O
viscosity [mPa·s], 101 kPa
Settings	298.15 K	323.15 K
x1 = 0.0603	1.119	0.7729
x1 = 0.1	1.286	–
x1 = 0.2	1.391	–
x1 = 0.2363	1.278	0.8526
x1 = 0.3	1.463	–
x1 = 0.4	1.506	–
x1 = 0.4165	1.425	0.9226
x1 = 0.5	1.564	–
x1 = 0.6	1.587	–
x1 = 0.613	1.52	0.9694
x1 = 0.7	1.607	–
x1 = 0.7416	1.565	0.9847
x1 = 0.8	1.607	–
x1 = 0.8864	1.565	0.9893
x1 = 0.9	1.582	–
x1 = 0.9578	1.56	0.9775

CC/C(C)=N/O + CCCCCC
viscosity [mPa·s], 101.3 kPa
Settings	x1 = 0.0993	x1 = 0.1991	x1 = 0.2977	x1 = 0.3987	x1 = 0.4972	x1 = 0.5993	x1 = 0.6977	x1 = 0.7981	x1 = 0.899
293.15 K	0.345	0.393	0.461	0.556	0.69	0.899	1.213	1.729	2.695
298.15 K	0.33	0.376	0.437	0.526	0.646	0.835	1.111	1.559	2.357
303.15 K	0.315	0.357	0.414	0.495	0.605	0.776	1.019	1.411	2.09

CC(Cl)(Cl)Cl + CCCCCCO
298.15 K, 101.33 kPa
Settings	viscosity [mPa·s]
x1 = 0.101	3.824
x1 = 0.2	3.188
x1 = 0.301	2.631
x1 = 0.402	2.142
x1 = 0.502	1.744
x1 = 0.601	1.43
x1 = 0.701	1.188
x1 = 0.8	1.002

CCCCCBr + Cc1ccc(C)cc1
308.15 K, 101 kPa
Settings	viscosity [mPa·s]
x2 = 0.1026	0.6316
x2 = 0.1991	0.6138
x2 = 0.304	0.5958
x2 = 0.4033	0.5803
x2 = 0.503	0.5655
x2 = 0.6052	0.5526
x2 = 0.7021	0.5436
x2 = 0.8	0.5318
x2 = 0.9034	0.5238

CC(Cl)(Cl)Cl + O=C1CCCCC1
298.15 K, 101.33 kPa
Settings	viscosity [mPa·s]
x1 = 0.053	1.896
x1 = 0.099	1.812
x1 = 0.151	1.725
x1 = 0.252	1.568
x1 = 0.352	1.43
x1 = 0.452	1.305
x1 = 0.551	1.192
x1 = 0.6	1.141
x1 = 0.651	1.089
x1 = 0.7	1.041
x1 = 0.8	0.9504
x1 = 0.861	0.8988

C1CN2CN3CCN(CN1C3)C2 + [2H]O[2H]
viscosity [mPa·s], 101 kPa
Settings	x1 = 0.004058	x1 = 0.008015	x1 = 0.01192	x1 = 0.01581	x1 = 0.02009
293.15 K	1.263	1.307	1.389	1.485	1.602
298.15 K	1.128	1.174	1.233	1.315	1.426
300.15 K	1.018	1.066	1.131	1.225	1.352
305.15 K	0.918	0.975	1.042	1.133	1.251

CC(Cl)(Cl)Cl + CCCCCCCC
303.15 K, 101 kPa
Settings	viscosity [mPa·s]
x1 = 0.1465	0.4786
x1 = 0.2573	0.4863
x1 = 0.3398	0.495
x1 = 0.4029	0.503
x1 = 0.4971	0.5195
x1 = 0.588	0.5408
x1 = 0.6617	0.5623
x1 = 0.7875	0.6103
x1 = 0.8238	0.6267
x1 = 0.9164	0.6735

CC(Cl)(Cl)Cl + CCCCO
298.15 K, 101 kPa
Settings	viscosity [mPa·s]
x1 = 0.1022	2.187
x1 = 0.2068	1.872
x1 = 0.3061	1.611
x1 = 0.4067	1.372
x1 = 0.5174	1.164
x1 = 0.605	1.042
x1 = 0.6995	0.936
x1 = 0.7924	0.855
x1 = 0.9022	0.811

From the CheMixHub viscosity set
